According to US20260167960A1, “METHODS AND COMPOSITIONS INCLUDING CONJUGATED DNAZYMES” (priority 2022, published 2026):

Test system: K. pneumoniae biofilm on silicon-coated latex Foley catheter
Experiment: Flow-cell catheter-associated biofilm, CFU assay
Assay type: cell-based
Settings: 2-hour perfusion; 750 or 1000 mcg/mL meropenem; FIG. 6A
Protocol: Catheters were then connected to a flow-cell system containing fresh 10% TSB, and fresh media was perfused through the catheter by a pump at 10 ml/hour at 37° C. After 24 hours, treatment solution was perfused into the catheter at 10 ml/hour at 37° C. for 2 hours. Bacteria were scraped from the catheter into 1 ml PBS, and decimal serial dilutions were performed. All dilutions were plated by drop-plating technique on LB agar plates. LB agar plates were incubated at 37° C., and CFU were counted the next morning.
To test the effect of conjugated DNAzymes on established, catheter-associated biofilms, K. pneumoniae were incubated in catheters for 2 hours in static conditions and then for 24 hours with fresh media flow, after which they were subject to a 2-hour perfusion with 750 or 1000 mcg/mL meropenem, alone or in combination with tocopherol-conjugated or cholesterol-conjugated DNAzymes. After the incubation, the tubing was cut open and bacteria were scraped from the inside of the tubing, after which the CFU were determined by replating and observing colony formation. […] When CFU formation was tested in plates containing a much lower concentration (10 mcg/mL) of meropenem, the prior treatment with conjugated DNAzymes+meropenem nearly completely abolished colony formation (FIG. 6B), showing that antibiotic resistance was largely, if not entirely, abrogated in the disrupted biofilms.

`C[C@@H](O)[C@H]1C(=O)N2C(C(=O)O)=C(S[C@@H]3CN[C@H](C(=O)N(C)C)C3)[C@H](C)[C@H]12` [meropenem] was tested, and the “disruption of established catheter-associated biofilms (CFU)” value was “not antibiotic alone, significantly disrupted the established biofilms”.
